Results taken from PMC10526274, “Epithelial-Immune Cell Crosstalk Determines the Activation of Immune Cells In Vitro by the Human Cathelicidin LL-37 at Low Physiological Concentrations” (Biomolecules, 2023).
Values joined by “and” are separate entries in the source; they are usually repeats but may differ in a detail not shown here. Equal values may be shown once.

How the values were obtained:
[1] = tested on: monocyte-derived dendritic cells (moDCs); assay: Multiplex xMAP cytokine levels, moDCs alone stimulated with LL-37; type: cell-based, human; conditions: 1 µM LL-37, 24 h
Protocol: Peripheral blood mononuclear cells (PBMCs) from a healthy donor were purchased from the American Type Culture Collection (ATCC PCS-800-011). Blood monocytes were isolated from PBMCs by plastic adhesion. Mature monocyte-derived dendritic cells (moDCs) were generated in vitro from peripheral blood monocytes, according to Nair et al.. Briefly, monocytes were cultured in a humidified CO2-incubator (5% CO2, 37 °C) in the complete RPMI-1640 medium (Gibco) with 10% FBS, antibiotics, and supplemented with a cytokine cocktail containing 500 U/mL rhIL-4 and 800 U/mL rhGM-CSF (both Sci-Store, Moscow, Russia). On the third day, the medium was replaced by the same fresh medium with FBS, antibiotics, and the cytokine cocktail. Induction of maturation of the immature monocyte-derived dendritic cells was performed on the 5th day by replacing the medium with the complete RPMI-1640 medium (Gibco) with 10% FBS and antibiotics, supplemented with a cytokine cocktail containing 500 U/mL rhIL-4, 800 U/mL rhGM-CSF (both Sci-Store, Moscow, Russia), and 100 U/mL rhTNF-α (Sigma-Aldrich), and subjected to subsequent incubation of the culture for 4 more days.
Primary blood monocytes, moDCs, and NKT cells were seeded in 600 µL of complete RPMI-1640 with 10% Human AB serum (Capricorn Scientific, Ebsdorfergrund, Germany) and supplemented with 1X antibiotic–antimycotic solution into the wells of 24-well plates at a density of 3–7 × 10^5 cells/well 24 h before the experiment. Then, 24 h later, the medium in each well was replaced by the same medium with 1 µM of LL-37 for the sample wells or fresh medium alone for the control wells, and the permeable inserts with the Caco-2 monolayer with TEER > 400 Ω × cm^2, containing 400 μL of the complete medium in their apical chamber, were immediately placed into the appropriate wells. Also, inserts with the Caco-2 monolayer were placed in cell-free wells of 24-well plates in the same complete RPMI-1640 medium with or without 1 µM of LL-37 as controls. Cells were kept in a CO2-incubator (5% CO2, 37 °C) for another 24 h. Then, culture medium from each well was collected, centrifuged, and frozen at −70 °C.
To quantitatively evaluate a broad spectrum of analytes secreted by human cell cultures at the protein level, multiplex xMAP technology was used. The chosen panel (cat. #HCYTA-60K-PX48, Merck, Darmstadt, Germany) included 48 different magnetic beads with primary antibodies to the following cytokines, chemokines, and growth factors: CCL11 (Eotaxin-1), Flt-3 ligand, CX3CL1 (Fractalkine), sCD40L, FGF-2, EGF, GROα, GM-CSF, G-CSF, IL-1RA, IL-1α, IL-1β, IL-2, IL-3, IL-4, IL-5, IL-6, IL-7, CXCL8 (IL-8), IL-9, IL-10, IL-12p40, IL-12p70, IL-13, IL-15, IL-17A (CTLA8), IL-17E (IL-25), IL-17F, IL-18, IL-22, IL-27, IFNγ, IFNα2, CXCL10 (IP-10), CCL2 (MCP-1), CCL7 (MCP-3), CCL22 (MDC), CXCL9 (MIG), CCL3 (MIP-1α), CCL4 (MIP-1β), CCL5 (RANTES), M-CSF, PDGF-AA, PDGF-AB/BB, TNFα, TNFβ, TGFα, and VEGF-A. The assay was performed in accordance with the manufacturer’s instructions with overnight incubation of the samples with primary antibodies, and the plate was read on a MAGPIX System (Merck) using the xPONENT 4.2 software (Merck). The acquired fluorescence data were analyzed by the MILLIPLEX Analyst v5.1 software (Merck), which realized an advanced curve-fitting algorithm. Levels of the analytes in control and experimental samples were compared with an unpaired two-sample t-test using GraphPad Prism v.8.0.1 (GraphPad Software, Inc., San Diego, CA, USA). The p-values ≤ 0.05 were considered significant.

human PBMCs = conditions: LL-37 at 5 μg/mL; cited from earlier work
Protocol: In contrast to the chemotactic potential of LL-37, available data on its ability to induce cytokine production by different cells argue for the absence of its biological activity at low physiological concentrations of ∼5 μg/mL observed in non-inflamed tissues. […] In the current study, we used LL-37 at a concentration of 1 μM (4.5 μg/mL) to study whether this peptide had immunomodulatory activity under non-inflamed physiological conditions. In ou ...

LL-37: the only human cathelicidin, host defense antimicrobial peptide of 37 a.a. residues, produced by solid-phase peptide synthesis
FLT-3L level ([1]; n=2, control 0.57): 0.51 pg/mL | IL-2 level ([1]; n=2, control 0.91): 0.91 pg/mL | IL-4 level ([1]; n=2, control 1.14): 1.31 pg/mL | TNFb level ([1]; n=2, control 1.49): 1.3 pg/mL | IL-3 level ([1]; n=2, control 1.55): 0.91 pg/mL | IL-18 level ([1]; n=2, control 1.61): 0.63 pg/mL | VEGFa level ([1]; n=2, control 2.82): 4.61 pg/mL | IL-15 level ([1]; n=2, control 4.12): 4.36 pg/mL | IL-5 level ([1]; n=2, control 4.63): 3.23 pg/mL | IFNg level ([1]; n=2, control 5.89): 5.02 pg/mL | EGF level ([1]; n=2, control 7.65): 6.75 pg/mL | IL-9 level ([1]; n=2, control 8.22): 7.84 pg/mL | IL-1b level ([1]; n=2, control 9.37): 7 pg/mL | IFNa2 level ([1]; n=2, control 10.16): 11.65 pg/mL | IL-1RA level ([1]; n=2, control 11.72): 11.72 pg/mL | GM-CSF level ([1]; n=2, control 13.02): 10.06 pg/mL | IL-22 level ([1]; n=2, control 13.22): 11.11 pg/mL | G-CSF level ([1]; n=2, control 20.3): 13.54 pg/mL | PDGF-AA level ([1]; n=2, control 24.8): 25.69 pg/mL | TGF-a level ([1]; n=2, control 25.07): 20.52 pg/mL | IL-6 level ([1]; n=2, control 27.8): 30.65 pg/mL | Fractalkine level ([1]; n=2, control 28.72): 25.92 pg/mL | IL-13 level ([1]; n=2, control 36.28): 29.87 pg/mL | TNFa level ([1]; n=2, control 40.81): 40.03 pg/mL | FGF-2 level ([1]; n=2, control 48.6): 47.27 pg/mL | GROa level ([1]; n=2, control 51.39): 53.94 pg/mL | IL-27 level ([1]; n=2, control 55.75): 59.83 pg/mL | IL-12 (p40) level ([1]; n=2, control 61.22): 61.22 pg/mL | IP-10 level ([1]; n=2, control 66.42): 57.64 pg/mL | PDGF-AB/BB level ([1]; n=2, control 72.4): 70.07 pg/mL | IL-10 level ([1]; n=2, control 89.23, p = 0.0058): 62 pg/mL and 62.12 pg/mL | sCD40L level ([1]; n=2, control 98.84): 95.47 pg/mL | M-GSF level ([1]; n=2, control 200.96): 185.65 pg/mL | RANTES level ([1]; n=2, control 423.03): 417.4 pg/mL | MCP-3 level ([1]; n=2, control 573.83): 545.69 pg/mL | MIP-1b level ([1]; n=2, control 2042): 2065 pg/mL | MIP-1a level ([1]; n=2, control 2533): 2368 pg/mL | MCP-1 level ([1]; n=2, control 3176): 2573 pg/mL | IL-8 level ([1]; n=2, control 4102): 4051 pg/mL | MIG level ([1]; n=2, control 27057): 23618 pg/mL | IL-7 level ([1]; n=2, control <0.30): <0.30↓ pg/ml | IL-17A level ([1]; n=2, control <0.70): <0.70↓ pg/ml | IL-1a level ([1]; n=2, control <1.30): <1.30↓ pg/ml | IL-12 (p70) level ([1]; n=2, control <1.71): <1.71↓ pg/ml | Eotaxin level ([1]; n=2, control <2.91): <2.91↓ pg/ml | IL-17F level ([1]; n=2, control <12.19): <12.19↓ pg/ml | IL-17E/IL-25 level ([1]; n=2, control <19.43): <19.43↓ pg/ml | MDC level ([1]; n=2, control >14590): >14590↑ pg/ml | Production of TNFα or IL-10 in human PBMCs (human PBMCs): not able to increase the production of TNFα or IL-10
